Counter-ions that a name gives are not always drawn.
These compounds were tested against T1, CETP (Homo sapiens, UniProt P11597) (assay: Inhibitory effect in vitro on CETP activity in total plasma). Details: plasma of healthy subject with [3H]CE-HDL3, 37° C., 4 hr; average values.
T1 construct: The donor lipoprotein obtained above was added to plasma of healthy subject; from tissue; host or cells: whole plasma of healthy subject
T1 sequence (P11597 18-493): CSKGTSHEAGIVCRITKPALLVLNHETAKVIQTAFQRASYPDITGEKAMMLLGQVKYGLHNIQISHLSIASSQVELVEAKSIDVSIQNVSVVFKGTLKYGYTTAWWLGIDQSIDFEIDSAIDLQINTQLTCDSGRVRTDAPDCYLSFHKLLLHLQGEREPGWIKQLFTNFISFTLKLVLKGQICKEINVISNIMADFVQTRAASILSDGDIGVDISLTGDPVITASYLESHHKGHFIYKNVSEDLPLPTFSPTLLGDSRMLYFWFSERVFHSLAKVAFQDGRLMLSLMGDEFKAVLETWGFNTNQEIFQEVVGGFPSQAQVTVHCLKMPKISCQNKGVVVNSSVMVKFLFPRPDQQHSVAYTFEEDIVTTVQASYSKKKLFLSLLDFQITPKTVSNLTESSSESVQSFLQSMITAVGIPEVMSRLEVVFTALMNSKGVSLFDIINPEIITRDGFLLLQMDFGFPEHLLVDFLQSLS
Format: biochemical
Description: Potassium bromide (KBr) was added to plasma (40 mL) of healthy subject and the mixture was adjusted to have a specific density d=1.125 g/mL. The mixture was subjected to density gradient centrifugation (227,000×g, 4° C., 17 hr) and a fraction showing a specific density of d>1.125 g/mL (HDL3 fraction) was harvested. The obtained fraction was dialyzed against PBS solution [10 mmol/L Na2HPO4; 10 mmol/L NaH2PO4; 0.15 mol/L NaCl; […] (pH 7.4)]. Then, tritium-labeled cholesterol (37 MBq) was dissolved in 95% ethanol, gradually added to the above-mentioned HDL3 fraction with stirring and incubated at 37° C. for 18 hr. [By this operation, tritium-labeled cholesterol was esterified by the action of lecithin acyl transferase (LCAT) present on the HDL3 surface and taken up into HDL3 as tritium-labeled cholesteryl ester ([^3H]CE)]. After incubation, KBr was added, the mixture was adjusted to have a specific density d=1.21 g/mL, subjected to density gradient centrifugation (227,000×g, 4° C., 17 hr) and a fraction of specific density […] was harvested. The obtained fraction was dialyzed against the aforementioned PBS solution to give HDL3 incorporating [^3H]CE ([^3H]CE-HDL3, specific density: 1.125<d<1.21, specific activity: 10,000 dpm/μL), which was used as a donor lipoprotein.
The donor lipoprotein obtained above was added to plasma of healthy subject to prepare a [^3H]CE-HDL3-containing plasma (1,000 dpm/μL). The compound was dissolved in dimethyl formamide. A solution of the compound or a solvent alone (2 μL) and the [^3H]CE-HDL3-containing plasma (100 μL) were added into a microtube, and this was incubated at 37° C. or 4° C. for 4 hr. After ice-cooling, TBS solution [100 μL, 20 mmol/L Tris; 0.15 mol/L NaCl (pH 7.4)] containing 1 mol/L magnesium chloride and 2% dextran sulfate was added to each microtube and the mixture was thoroughly stirred. After keeping at 4° C. for 30 min, the mixture was centrifuged (10,000×g, 4° C., 10 min), and the radioactivity in the obtained supernatant (HDL fraction) was measured with a scintillation counter. […] The concentration of the compound necessary for inhibiting the CETP activity by 50% was calculated as an IC50 value.

Row | IC50 [nM] | SMILES
1 | 190 | CCN(CC1CCCC1)c1cc2c(cc1CN(Cc1cc(C(F)(F)F)cc(C(F)(F)F)c1)c1nnn(CCO)n1)CCC2 [Example 73, 2-(5-{N-[3,5-bis(trifluoromethyl)benzyl]-N-[6-(N′-cyclopentylmethyl-N′-ethylamino)indan-5-ylmethyl]amino}tetrazol-2-yl)ethanol hydrochloride]
2 | 400 | CCN(CCCCC(=O)OC)c1cc2c(cc1CN(Cc1cc(C(F)(F)F)cc(C(F)(F)F)c1)c1ncn(C)n1)CCCC2 [Example 74, methyl 5-[N-(3-{[N′-[3,5-bis(trifluoromethyl)benzyl]-N′-(1-methyl-1H-[1,2,4]triazol-3-yl)amino]methyl}-5,6,7,8-tetrahydronaphthalen-2-yl)-N-ethylamino]pentanoate hydrochloride]
3 | 410 | CCN(CCCCC(=O)OC)c1cc2c(cc1CN(Cc1cc(C#N)cc(C(F)(F)F)c1)c1ncn(C)n1)CCCC2 [Example 75, methyl 5-[N-(3-{[N′-(3-cyano-5-trifluoromethylbenzyl)-N′-(1-methyl-1H-[1,2,4]triazol-3-yl)amino]methyl}-5,6,7,8-tetrahydronaphthalen-2-yl)-N-ethylamino]pentanoate hydrochloride]
4 | 290 | CCN(CCCCC(=O)O)c1cc2c(cc1CN(Cc1cc(C(F)(F)F)cc(C(F)(F)F)c1)c1ncn(C)n1)CCCC2 [Example 76, 5-[N-(3-{[N′-[3,5-bis(trifluoromethyl)benzyl]-N′-(1-methyl-1H-[1,2,4]triazol-3-yl)amino]methyl}-5,6,7,8-tetrahydronaphthalen-2-yl)-N-ethylamino]pentanoic acid hydrochloride]
5 | 540 | CCN(CCCCC(=O)O)c1cc2c(cc1CN(Cc1cc(C#N)cc(C(F)(F)F)c1)c1ncn(C)n1)CCCC2 [Example 77, 5-[N-(3-{[N′-(3-cyano-5-trifluoromethylbenzyl)-N′-(1-methyl-1H-[1,2,4]triazol-3-yl)amino]methyl}-5,6,7,8-tetrahydronaphthalen-2-yl)-N-ethylamino]pentanoic acid hydrochloride]
6 | 320 | CCN(CCCCC(=O)O)c1cc2c(cc1CN(Cc1cc(C(F)(F)F)cc(C(F)(F)F)c1)c1cc(C)no1)CCCC2 [Example 78, 5-[N-(3-{[N′-[3,5-bis(trifluoromethyl)benzyl]-N′-(3-methylisoxazol-5-yl)amino]methyl}-5,6,7,8-tetrahydronaphthalen-2-yl)-N-ethylamino]pentanoic acid hydrochloride]
7 | 890 | CCN(CCCCC(=O)O)c1cc2c(cc1CN(Cc1cc(C#N)cc(C(F)(F)F)c1)c1cc(C)no1)CCCC2 [Example 79, 5-[N-(3-{[N′-(3-cyano-5-trifluoromethylbenzyl)-N′-(3-methylisoxazol-5-yl)amino]methyl}-5,6,7,8-tetrahydronaphthalen-2-yl)-N-ethylamino]pentanoic acid hydrochloride]
8 | 430 | CCN(CCCCC(=O)O)c1cc2c(cc1CN(Cc1cc(C(F)(F)F)cc(C(F)(F)F)c1)c1nnn(C)n1)CCCC2 [Example 80, 5-[N-(3-{[N′-[3,5-bis(trifluoromethyl)benzyl]-N′-(2-methyl-2H-tetrazol-5-yl)amino]methyl}-5,6,7,8-tetrahydronaphthalen-2-yl)-N-ethylamino]pentanoic acid hydrochloride]
9 | 330 | CCN(CCCCC(=O)O)c1cc2c(cc1CN(Cc1cc(C#N)cc(C(F)(F)F)c1)c1nnn(C)n1)CCCC2 [Example 81, 5-[N-(3-{[N′-(3-cyano-5-trifluoromethylbenzyl)-N′-(2-methyl-2H-tetrazol-5-yl)amino]methyl}-5,6,7,8-tetrahydronaphthalen-2-yl)-N-ethylamino]pentanoic acid hydrochloride]
10 | 590 | CCN(C[C@H]1CC[C@H](C(=O)O)CC1)c1cc2c(cc1CN(Cc1cc(C(F)(F)F)cc(C(F)(F)F)c1)c1noc(C)n1)CCC2 [Example 82, trans-4-{[N-(6-{[N′-[3,5-bis(trifluoromethyl)benzyl]-N′-(5-methyl-[1,2,4]oxadiazol-3-yl)amino]methyl}indan-5-yl)-N-ethylamino]methyl}cyclohexanecarboxylic acid]
11 | 941 | CCN(CCCCC(=O)O)c1ccc(C(F)(F)F)cc1CN(Cc1cc(C(F)(F)F)cc(C(F)(F)F)c1)c1nnn(C)n1 [Example 86, 5-[N-(2-{[N′-[3,5-bis(trifluoromethyl)benzyl]-N′-(2-methyl-2H-tetrazol-5-yl)amino]methyl}-4-trifluoromethylphenyl)-N-ethylamino]pentanoic acid hydrochloride]
12 | 760 | CCN(C[C@H]1CC[C@H](C(=O)O)CC1)c1cc2c(cc1CN(Cc1cc(C(F)(F)F)cc(C(F)(F)F)c1)c1nnn(CC)n1)CCC2 [Example 93, trans-4-{[N-(6-{[N′-[3,5-bis(trifluoromethyl)benzyl]-N′-(2-ethyl-2H-tetrazol-5-yl)amino]methyl}indan-5-yl)-N-ethylamino]methyl}cyclohexanecarboxylic acid hydrochloride]
13 | 530 | CCN(C[C@H]1CC[C@H](C(=O)O)CC1)c1cc2c(cc1CN(Cc1cc(C(F)(F)F)cc(C(F)(F)F)c1)c1nnn(CC)n1)CCCC2 [Example 99, trans-4-{[N-(3-{[N′-[3,5-bis(trifluoromethyl)benzyl]-N′-(2-ethyl-2H-tetrazol-5-yl)amino]methyl}-5,6,7,8-tetrahydronaphthalen-2-yl)-N-ethylamino]methyl}cyclohexanecarboxylic acid hydrochloride]
14 | 590 | CCN(CCC(C)(C)CC(=O)O)c1cc2c(cc1CN(Cc1cc(C(F)(F)F)cc(C(F)(F)F)c1)c1ccn(C)n1)CCC2 [Example 102, 5-[N-(6-{[N′-[3,5-bis(trifluoromethyl)benzyl]-N′-(1-methyl-1H-pyrazol-3-yl)amino]methyl}indan-5-yl)-N-ethylamino]-3,3-dimethylpentanoic acid]
15 | 430 | CCN(CCC(C)(C)CC(=O)O)c1cc2c(cc1CN(Cc1cc(C(F)(F)F)cc(C(F)(F)F)c1)c1noc(C)n1)CCC2 [Example 103, 5-[N-(6-{[N′-[3,5-bis(trifluoromethyl)benzyl]-N′-(5-methyl-[1,2,4]oxadiazol-3-yl)amino]methyl}indan-5-yl)-N-ethylamino]-3,3-dimethylpentanoic acid hydrochloride]
16 | 350 | CCN(CCC(C)(C)CC(=O)O)c1ccc(OC(F)(F)F)cc1CN(Cc1cc(C(F)(F)F)cc(C(F)(F)F)c1)c1nnn(C)n1 [Example 104, 5-[N-(2-{[N′-[3,5-bis(trifluoromethyl)benzyl]-N′-(2-methyl-2H-tetrazol-5-yl)amino]methyl}-4-trifluoromethoxyphenyl)-N-ethylamino]-3,3-dimethylpentanoic acid hydrochloride]
17 | 600 | CCN(CCC(C)(C)CC(=O)O)c1ccc(C(F)(F)F)cc1CN(Cc1cc(C(F)(F)F)cc(C(F)(F)F)c1)c1nnn(C)n1 [Example 105, 5-[N-(2-{[N′-[3,5-bis(trifluoromethyl)benzyl]-N′-(2-methyl-2H-tetrazol-5-yl)amino]methyl}-4-trifluoromethylphenyl)-N-ethylamino]-3,3-dimethylpentanoic acid hydrochloride]
18 | 190 | CCN(C[C@H]1CC[C@H](CC(=O)O)CC1)c1cc2c(cc1CN(Cc1cc(C(F)(F)F)cc(C(F)(F)F)c1)c1nnn(C)n1)CCC2 [Example 111, trans-(4-{[N-(6-{[N′-[3,5-bis(trifluoromethyl)benzyl]-N′-(2-methyl-2H-tetrazol-5-yl)amino]methyl}indan-5-yl)-N-ethylamino]methyl}cyclohexyl)acetic acid hydrochloride]
19 | 280 | CCN(CC(C)(C)CCC(=O)O)c1cc2c(cc1CN(Cc1cc(C(F)(F)F)cc(C(F)(F)F)c1)c1nnn(C)n1)CCC2 [Example 114, 5-[N-(6-{[N′-[3,5-bis(trifluoromethyl)benzyl]-N′-(2-methyl-2H-tetrazol-5-yl)amino]methyl}indan-5-yl)-N-ethylamino]-4,4-dimethylpentanoic acid hydrochloride]

— patent US7807701B2, “Dibenzylamine compounds and pharmaceutical use thereof” (Japan Tobacco Inc., priority 2002, dated 2010)
